The text below walks through data of patent US7030142B1, “Methods for the treatment of neuroleptic and related disorders using ziprasidone metabolites” (Sepracor Inc., priority 1999, dated 2006).

For data set [1] the following is noted: ziprasidone administered orally; cited from earlier work.
Data set [2] deals with D2 dopamine receptors (Homo sapiens, UniProt P14416). Kind of data set: Competition radioreceptor assay, D2 dopamine receptors. Conditions: 90 minute incubation; (+)-butaclamol (0.25 μM) defining nonspecific binding; read-out: KD of radioligand. As for the experimental part:
Competition radioreceptor assays are used to determine the affinity (IC50's) of the phenylaminotetralins and other reference ligands for D2 dopamine receptors. […] Jarvie, J. R. et al., Eur. J. Pharmacol., 144:163–171 (1987) and Kula, N. S. et al., Dev. Brain Res., 66:286–287 (1992). […] Test agents are evaluated by running, in duplicate, six or more concentrations that bracketed the IC50. Three replications are performed, and the resulting data are analyzed using the ALLFIT program.

Data set [3] deals with dopamine D2 receptor (Homo sapiens, UniProt P14416). Conditions: Seeger et al. 1995; cited from earlier work.
Sequence of dopamine D2 receptor (P14416 whole entry, species assumed): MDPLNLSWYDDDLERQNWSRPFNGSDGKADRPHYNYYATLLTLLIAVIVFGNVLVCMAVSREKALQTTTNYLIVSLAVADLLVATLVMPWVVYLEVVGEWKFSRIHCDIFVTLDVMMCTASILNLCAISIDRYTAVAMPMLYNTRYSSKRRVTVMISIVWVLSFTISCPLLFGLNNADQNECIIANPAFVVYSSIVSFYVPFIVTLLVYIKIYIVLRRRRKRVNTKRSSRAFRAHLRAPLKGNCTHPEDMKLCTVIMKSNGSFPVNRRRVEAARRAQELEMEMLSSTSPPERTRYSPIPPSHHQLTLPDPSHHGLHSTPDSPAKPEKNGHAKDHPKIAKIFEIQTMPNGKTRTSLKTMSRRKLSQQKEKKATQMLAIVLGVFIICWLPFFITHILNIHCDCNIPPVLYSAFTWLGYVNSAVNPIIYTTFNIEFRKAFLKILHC
In data set [4] the target is 5-HT1D (Homo sapiens, UniProt P28221). To be noted: Seeger et al. 1995; cited from earlier work.
Sequence of 5-HT1D (P28221 whole entry, species assumed): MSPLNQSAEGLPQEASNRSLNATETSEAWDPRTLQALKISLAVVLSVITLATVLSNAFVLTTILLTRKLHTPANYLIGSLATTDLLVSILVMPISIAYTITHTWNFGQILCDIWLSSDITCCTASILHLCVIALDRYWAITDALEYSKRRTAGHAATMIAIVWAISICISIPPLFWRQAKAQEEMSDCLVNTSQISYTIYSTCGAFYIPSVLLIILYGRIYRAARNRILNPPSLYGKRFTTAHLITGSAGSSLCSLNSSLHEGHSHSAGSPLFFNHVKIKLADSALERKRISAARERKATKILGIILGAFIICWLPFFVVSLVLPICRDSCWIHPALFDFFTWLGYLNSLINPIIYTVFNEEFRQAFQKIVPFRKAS
Data set [5] concerns the target T1, 5-HT1A (Homo sapiens, UniProt P08908).
T1 sequence (P08908 1-422): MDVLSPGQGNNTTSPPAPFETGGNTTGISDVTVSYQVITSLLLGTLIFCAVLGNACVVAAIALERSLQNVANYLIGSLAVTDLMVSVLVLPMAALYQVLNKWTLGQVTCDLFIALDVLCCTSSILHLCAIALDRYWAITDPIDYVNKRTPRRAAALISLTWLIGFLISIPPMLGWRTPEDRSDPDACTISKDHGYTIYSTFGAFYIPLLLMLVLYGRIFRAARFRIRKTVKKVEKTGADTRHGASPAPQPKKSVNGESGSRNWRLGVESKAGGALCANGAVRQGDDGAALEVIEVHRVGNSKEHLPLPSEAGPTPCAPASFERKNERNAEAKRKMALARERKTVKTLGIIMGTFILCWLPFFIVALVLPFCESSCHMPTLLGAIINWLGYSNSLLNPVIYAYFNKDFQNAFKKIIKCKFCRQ
To be noted: Seeger et al. 1995; cited from earlier work.

For data set [6], the target named is T2, 5-HT2C (Homo sapiens, UniProt P28335).
T2 sequence (P28335 33-458): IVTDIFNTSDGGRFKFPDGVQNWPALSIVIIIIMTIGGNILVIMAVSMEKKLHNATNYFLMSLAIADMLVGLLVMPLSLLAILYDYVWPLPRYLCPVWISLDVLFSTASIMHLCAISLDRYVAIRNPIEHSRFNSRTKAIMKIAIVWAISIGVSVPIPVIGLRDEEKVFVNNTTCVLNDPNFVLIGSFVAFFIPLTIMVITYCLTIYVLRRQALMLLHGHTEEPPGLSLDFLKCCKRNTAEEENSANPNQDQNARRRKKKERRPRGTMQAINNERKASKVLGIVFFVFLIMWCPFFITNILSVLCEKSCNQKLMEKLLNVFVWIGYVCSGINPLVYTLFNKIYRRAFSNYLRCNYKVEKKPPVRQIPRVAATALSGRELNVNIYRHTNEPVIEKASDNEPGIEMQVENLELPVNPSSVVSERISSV
To be noted: Seeger et al. 1995; cited from earlier work.

Data set [7] relates to 5-HT2 receptor. Conditions: Seeger et al. 1995; cited from earlier work.

Structures can show the parent of a compound that is named as a salt.

Sequence of D2 dopamine receptors (P14416 whole entry): as the sequence (P14416 whole entry, species assumed) above

As for `O=C1Cc2cc(CCN3CCN(C4=NS(=O)(=O)c5ccccc54)CC3)c(Cl)cc2N1` [ZIP-SO2, ziprasidone sulfone], in data set [1], the “share of ziprasidone metabolites found in human urine” value is “less than 3%”.

`O=C1Cc2cc(CCN3CCN(c4n[s+]([O-])c5ccccc45)CC3)c(Cl)cc2N1` (centres unmarked) [ZIP-SO, ziprasidone sulfoxide]: the “share of ziprasidone metabolites found in human urine” value in data set [1] was “less than 10%”.

Turning to `CN1CCc2cc(Cl)c(O)cc2C(c2ccccc2)C1` (centres unmarked) [[^3H]SCH23390], the Kd in data set [2] amounted to 0.34 nM.

Regarding `O=C1Cc2cc(CCN3CCN(c4nsc5ccccc45)CC3)c(Cl)cc2N1` [ziprasidone, (5-[2-{4-(1,2-benzisothiazol-3-yl)piperizin-1-yl}ethyl]-6-chlorooxindole)hydrochloride hydrate], the “dopamine D2 receptor antagonist” value in data set [3] was “highly potent and selective”. Moreover, in data set [4], the “affinity for 5-HT1D receptor subtype” value was “high affinity”. The “affinity for 5-HT1A receptor subtype” value in data set [5] is reported as “high affinity”. Besides, the “affinity for 5-HT2C receptor subtype” value in data set [6] was “high affinity”. The 5-HT2 receptor antagonist entry in data set [7] is “highly potent and selective”.
